Results taken from patent US20180016593A1, “HERBICIDE-RESISTANT SUNFLOWER PLANTS, POLYNUCLEOTIDES ENCODING HERBICIDE-RESISTANT ACETOHYDROXYACID SYNTHASE LARGE SUBUNIT PROTEINS, AND METHODS OF USE” (priority 2005, published 2018).
“And” between values parts separate entries of the source, which are not always exact repeats. Identical values can stand only once. Like-named read-outs stand apart in the source and are kept apart here.

Columns and labels:
Assay type in all cases: in vivo, Helianthus annuus
[1] = tested on: sunflower TH1 (Hybrid, A205V); conditions: 14 DAT
Method: (§1) A greenhouse study was conducted to quantify and contrast the imazapir sensivity of the mutants A122T and A205V in different genetic backgrounds at the whole plant level in sunflower. Seeds of the different sunflower lines that were used in this study were obtained under field conditions.
(§2) Seeds were sown in Petri dishes and, after germination, plantlets were transplanted to pots of 10 cm of diameter in a potting media consisting of equal parts of vermiculite, soil and sand. Plants were grown in a greenhouse under natural light conditions supplemented with 400 W sodium halide lamps to provide a 16 hrs daylength. Day/night temperatures were 25 and 20° C., respectively. At the V2 stage 10 plants of each genotype were randomly assigned to each treatment consisting of […] imazapir doses (0, 40, 80, 160, 240, 320, 400 and 480 g ai/ha), and a zero-time biomass determination. Experiment was arranged as a randomized block design with a full factorial (sunflower line×treatment) arrangement of treatments and 10 replications.
(§3) On the day of herbicide application ten plants of each genotype were cut at the cotyledonal node and dried at 60° C. for 48 hrs zero-time for dried weight determination.
(§4) Height was determined as the distance between the cotyledonal node and the apex of each plant. For root biomass determination, each plant was taken from the pot and the potting media was washed out from the roots. Above ground biomass data from each line were converted to biomass accumulation after application by subtracting the appropriate average zero-time biomass from each sample. Dry biomass data were converted to percentages of the untreated control plants within each line to allow direct comparisons between groups. […]

[2] = tested on: sunflower TH10 (Restorer Line, A205V); conditions: 14 DAT
Method: as §1, §2, §3, §4

[3] = tested on: sunflower TH12 (Restorer Line, A122T); conditions: 14 DAT
Method: as §1, §2, §3, §4

[4] = tested on: sunflower lines carrying the A205V mutation; conditions: 14 DAT; for biomass accumulation, Dif with Control / plant height, Dif with Control / root dry weight, Dif with Control: A205V mean; for biomass accumulation, Mean / root dry weight, Mean / plant height, Mean: six A205V genotypes; for Phytotoxicity Index, Mean: three A205V genotypes
Method: as §1, §2, §3, §4

CC(C)C1(C)N=C(c2ncccc2C(=O)O)NC1=O (centres unmarked) [imazapyr]
biomass accumulation (above ground dry weight) ([1]; 0.5x (40 g ai/ha)): 95.0 % of untreated plots | plant height ([1]; 0.5x (40 g ai/ha)): 99.5 % of untreated plots | root dry weight ([1]; 0.5x (40 g ai/ha)): 79.4 % of untreated plots | biomass accumulation (above ground dry weight) ([1]; 1x (80 g ai/ha)): 89.6 % of untreated plots | plant height ([1]; 1x (80 g ai/ha)): 99.5 % of untreated plots | root dry weight ([1]; 1x (80 g ai/ha)): 70.7 % of untreated plots | biomass accumulation (above ground dry weight) ([1]; 2x (160 g ai/ha)): 75.5 % of untreated plots | plant height ([1]; 2x (160 g ai/ha)): 78.6 % of untreated plots | root dry weight ([1]; 2x (160 g ai/ha)): 69.6 % of untreated plots | biomass accumulation (above ground dry weight) ([1]; 3x (240 g ai/ha)): 60.4 % of untreated plots | plant height ([1]; 3x (240 g ai/ha)): 48.4 % of untreated plots | root dry weight ([1]; 3x (240 g ai/ha)): 42.3 % of untreated plots | biomass accumulation (above ground dry weight) ([1]; 4x (320 g ai/ha)): 48.5 % of untreated plots | plant height ([1]; 4x (320 g ai/ha)): 28.9 % of untreated plots | root dry weight ([1]; 4x (320 g ai/ha)): 38.6 % of untreated plots | biomass accumulation (above ground dry weight) ([1]; 5x (400 g ai/ha)): 38.9 % of untreated plots | plant height ([1]; 5x (400 g ai/ha)): 25.3 % of untreated plots | root dry weight ([1]; 5x (400 g ai/ha)): 34.7 % of untreated plots | biomass accumulation (above ground dry weight) ([1]; 6x (480 g ai/ha)): 33.9 % of untreated plots | plant height ([1]; 6x (480 g ai/ha)): 27.1 % of untreated plots | root dry weight ([1]; 6x (480 g ai/ha)): 23.1 % of untreated plots | Phytotoxicity Index ([2]; 0.5x (40 g ai/ha)): 0 | biomass accumulation (above ground dry weight) ([2]; 0.5x (40 g ai/ha)): 99.2 % of untreated plots | plant height ([2]; 0.5x (40 g ai/ha)): 99.2 % of untreated plots | root dry weight ([2]; 0.5x (40 g ai/ha)): 90.3 % of untreated plots | Phytotoxicity Index ([2]; 1x (80 g ai/ha)): 0 | biomass accumulation (above ground dry weight) ([2]; 1x (80 g ai/ha)): 85.0 % of untreated plots | plant height ([2]; 1x (80 g ai/ha)): 98.1 % of untreated plots | root dry weight ([2]; 1x (80 g ai/ha)): 69.9 % of untreated plots | Phytotoxicity Index ([2]; 2x (160 g ai/ha)): 3.1 | biomass accumulation (above ground dry weight) ([2]; 2x (160 g ai/ha)): 58.1 % of untreated plots | plant height ([2]; 2x (160 g ai/ha)): 63.6 % of untreated plots | root dry weight ([2]; 2x (160 g ai/ha)): 41.3 % of untreated plots | Phytotoxicity Index ([2]; 3x (240 g ai/ha)): 3.9 | biomass accumulation (above ground dry weight) ([2]; 3x (240 g ai/ha)): 48.1 % of untreated plots | plant height ([2]; 3x (240 g ai/ha)): 51.9 % of untreated plots | root dry weight ([2]; 3x (240 g ai/ha)): 42.8 % of untreated plots | Phytotoxicity Index ([2]; 4x (320 g ai/ha)): 5.9 | biomass accumulation (above ground dry weight) ([2]; 4x (320 g ai/ha)): 28.8 % of untreated plots | plant height ([2]; 4x (320 g ai/ha)): 27.5 % of untreated plots | root dry weight ([2]; 4x (320 g ai/ha)): 22.3 % of untreated plots | Phytotoxicity Index ([2]; 5x (400 g ai/ha)): 6.9 | biomass accumulation (above ground dry weight) ([2]; 5x (400 g ai/ha)): 27.4 % of untreated plots | plant height ([2]; 5x (400 g ai/ha)): 26.0 % of untreated plots | root dry weight ([2]; 5x (400 g ai/ha)): 22.7 % of untreated plots | Phytotoxicity Index ([2]; 6x (480 g ai/ha)): 6.7 | biomass accumulation (above ground dry weight) ([2]; 6x (480 g ai/ha)): 24.9 % of untreated plots | plant height ([2]; 6x (480 g ai/ha)): 29.3 % of untreated plots | root dry weight ([2]; 6x (480 g ai/ha)): 16.4 % of untreated plots | Phytotoxicity Index ([3]; 0.5x (40 g ai/ha)): 0.0 | biomass accumulation (above ground dry weight) ([3]; 0.5x (40 g ai/ha)): 100.0 % of untreated plots | plant height ([3]; 0.5x (40 g ai/ha)): 100.0 % of untreated plots | root dry weight ([3]; 0.5x (40 g ai/ha)): 99.4 % of untreated plots | Phytotoxicity Index ([3]; 1x (80 g ai/ha)): 0.0 | biomass accumulation (above ground dry weight) ([3]; 1x (80 g ai/ha)): 99.1 % of untreated plots | plant height ([3]; 1x (80 g ai/ha)): 100.0 % of untreated plots | root dry weight ([3]; 1x (80 g ai/ha)): 100 % of untreated plots | Phytotoxicity Index ([3]; 2x (160 g ai/ha)): 0.0 | biomass accumulation (above ground dry weight) ([3]; 2x (160 g ai/ha)): 97.0 % of untreated plots | plant height ([3]; 2x (160 g ai/ha)): 101.8 % of untreated plots | root dry weight ([3]; 2x (160 g ai/ha)): 100 % of untreated plots | Phytotoxicity Index ([3]; 3x (240 g ai/ha)): 0.0 | biomass accumulation (above ground dry weight) ([3]; 3x (240 g ai/ha)): 96.1 % of untreated plots | plant height ([3]; 3x (240 g ai/ha)): 97.0 % of untreated plots | root dry weight ([3]; 3x (240 g ai/ha)): 100.0 % of untreated plots | Phytotoxicity Index ([3]; 4x (320 g ai/ha)): 0.0 | biomass accumulation (above ground dry weight) ([3]; 4x (320 g ai/ha)): 84.3 % of untreated plots | plant height ([3]; 4x (320 g ai/ha)): 92.1 % of untreated plots | root dry weight ([3]; 4x (320 g ai/ha)): 74.5 % of untreated plots | Phytotoxicity Index ([3]; 5x (400 g ai/ha)): 0.0 | biomass accumulation (above ground dry weight) ([3]; 5x (400 g ai/ha)): 77.5 % of untreated plots | plant height ([3]; 5x (400 g ai/ha)): 84.8 % of untreated plots | root dry weight ([3]; 5x (400 g ai/ha)): 65.0 % of untreated plots | Phytotoxicity Index ([3]; 6x (480 g ai/ha)): 0.5 | biomass accumulation (above ground dry weight) ([3]; 6x (480 g ai/ha)): 70.7 % of untreated plots | plant height ([3]; 6x (480 g ai/ha)): 79.8 % of untreated plots | root dry weight ([3]; 6x (480 g ai/ha)): 57.8 % of untreated plots | biomass accumulation, Dif with Control ([4]; 0.5x (40 g ai/ha)): 5.5 % of untreated plots | plant height, Dif with Control ([4]; 0.5x (40 g ai/ha)): 5.6 % of untreated plots | root dry weight, Dif with Control ([4]; 0.5x (40 g ai/ha)): 12.8 % of untreated plots | biomass accumulation, Dif with Control ([4]; 1x (80 g ai/ha)): 17.8 % of untreated plots | plant height, Dif with Control ([4]; 1x (80 g ai/ha)): 10.8 % of untreated plots | root dry weight, Dif with Control ([4]; 1x (80 g ai/ha)): 29.2 % of untreated plots | biomass accumulation, Dif with Control ([4]; 2x (160 g ai/ha)): 38.4 % of untreated plots | plant height, Dif with Control ([4]; 2x (160 g ai/ha)): 30.8 % of untreated plots | root dry weight, Dif with Control ([4]; 2x (160 g ai/ha)): 49.4 % of untreated plots | biomass accumulation, Dif with Control ([4]; 3x (240 g ai/ha)): 52.4 % of untreated plots | plant height, Dif with Control ([4]; 3x (240 g ai/ha)): 49.6 % of untreated plots | root dry weight, Dif with Control ([4]; 3x (240 g ai/ha)): 60.8 % of untreated plots | biomass accumulation, Dif with Control ([4]; 4x (320 g ai/ha)): 64.6 % of untreated plots | plant height, Dif with Control ([4]; 4x (320 g ai/ha)): 66.3 % of untreated plots | root dry weight, Dif with Control ([4]; 4x (320 g ai/ha)): 68.9 % of untreated plots | biomass accumulation, Dif with Control ([4]; 5x (400 g ai/ha)): 67.6 % of untreated plots | plant height, Dif with Control ([4]; 5x (400 g ai/ha)): 68.0 % of untreated plots | root dry weight, Dif with Control ([4]; 5x (400 g ai/ha)): 69.3 % of untreated plots | biomass accumulation, Dif with Control ([4]; 6x (480 g ai/ha)): 70.0 % of untreated plots | root dry weight, Dif with Control ([4]; 6x (480 g ai/ha)): 75.6 % of untreated plots | plant height, Dif with Control ([4]; 6x (480 g ai/ha), listed as imazapir): 68.9 % of untreated plots and 69.8 % of untreated plots | biomass accumulation, Mean ([4]; 0.5x (40 g ai/ha)): 94.5 % of untreated plots | root dry weight, Mean ([4]; 0.5x (40 g ai/ha)): 87.2 % of untreated plots | biomass accumulation, Mean ([4]; 1x (80 g ai/ha)): 82.2 % of untreated plots | root dry weight, Mean ([4]; 1x (80 g ai/ha)): 70.8 % of untreated plots | biomass accumulation, Mean ([4]; 2x (160 g ai/ha)): 61.6 % of untreated plots | plant height, Mean ([4]; 2x (160 g ai/ha)): 69.2 % of untreated plots | root dry weight, Mean ([4]; 2x (160 g ai/ha)): 50.6 % of untreated plots | biomass accumulation, Mean ([4]; 3x (240 g ai/ha)): 47.6 % of untreated plots | plant height, Mean ([4]; 3x (240 g ai/ha)): 50.4 % of untreated plots | root dry weight, Mean ([4]; 3x (240 g ai/ha)): 39.2 % of untreated plots | biomass accumulation, Mean ([4]; 4x (320 g ai/ha)): 35.4 % of untreated plots | plant height, Mean ([4]; 4x (320 g ai/ha)): 33.7 % of untreated plots | root dry weight, Mean ([4]; 4x (320 g ai/ha)): 31.1 % of untreated plots | biomass accumulation, Mean ([4]; 5x (400 g ai/ha)): 32.4 % of untreated plots | plant height, Mean ([4]; 5x (400 g ai/ha)): 32.0 % of untreated plots | root dry weight, Mean ([4]; 5x (400 g ai/ha)): 30.7 % of untreated plots | biomass accumulation, Mean ([4]; 6x (480 g ai/ha)): 30.0 % of untreated plots | plant height, Mean ([4]; 6x (480 g ai/ha)): 30.2 % of untreated plots | root dry weight, Mean ([4]; 6x (480 g ai/ha)): 24.4 % of untreated plots | Phytotoxicity Index, Mean ([4]; 2x (160 g ai/ha)): 2.2 | Phytotoxicity Index, Mean ([4]; 3x (240 g ai/ha)): 5.1 | Phytotoxicity Index, Mean ([4]; 4x (320 g ai/ha)): 7.4 | Phytotoxicity Index, Mean ([4]; 5x (400 g ai/ha)): 8.2 | Phytotoxicity Index, Mean ([4]; 6x (480 g ai/ha)): 8.2
